Each structure is given as a SMILES string. A value given as a limit tells only on which side of the number the result lay.

Series [1] has as its system 8392B cell line. In words: Two hour toxicity: inhibition of DNA synthesis activity, nontarget cell line. It counts as cell-based.
The test system of series [2] is MV522 cell line. In words: cells. It counts as cell-based.
The test system of series [3] is MV522 cell line. Nature of the series: 48 hour exposure, growth or viability by Trypan Blue Exclusion assay, target cell line. Format: cell-based. The conditions noted are these: read-out: Mean IC50 value (nM) ± SD, N=3 unless otherwise indicated.
In series [4] the test system is 8392B cell line. Nature of the series: cells. It counts as cell-based. The following applies: read-out: Mean IC50 value (nM) ± SD, N=3 unless otherwise indicated, 8392B Nontarget Cell Line, 48 hr exposure, 8392B nontarget cell line, mean ± SD, N=3 unless otherwise indicated.
For the next series, the system named is NCI 60 cell line panel. Nature of the series: NCI DTP 60 cell line screen assay. The conditions noted are these: for Cytotoxicity: ability to actually kill tumor cells versus only inhibiting growth. The text has this: An ADC is engulfed by a tumor cell, transported to the endosomes (pH < 6.0) and then into the lysozomes (pH < 4). […] 4) Cancer cells can become resistant to various toxins and drugs through the development of what is termed multi-drug resistance. This process is known to occur through several different mechanisms.

The mark [5] stands for this setting: read-out: Mean IC50 value (nM) ± SD, N=3 unless otherwise indicated, 8392B Nontarget Cell Line, 2 hr exposure, 8392B nontarget cell line, 2 hr exposure, mean ± SD, N=3 unless otherwise indicated.
Setting [6] is: read-out: Mean IC50 value (nM) ± SD, N=3 unless otherwise indicated, MV522 Target Cell Line, 2 hr exposure, MV522 target cell line, 2 hr exposure, mean ± SD, N=3 unless otherwise indicated.

For the compound `CC1=C(CO)C2=C(C)C3(CC3)[C@@](C)(O)C(=O)C2=C1` [analog 002, (6'R)-6'-hydroxy-3'-(hydroxymethyl)-2',4',6'-trimethylspiro[cyclopropane-1,5'-inden]-7'(6'H)-one], the IC50 (as a rule, the midpoint of a concentration-inhibition curve) with 8392B cell line [1] (2 hour exposure, nontarget cell line, read-out: IC50 8392B) is more than 26000 nM; with MV522 cell line [2] (MV522, 2 h, read-out: IC50 MV522), 110 nM.

With `CC1=CC2=C(C)C3(CC3)[C@@](C)(O)/C(=N/O)C2=C1` [analog 224, (R,E)-6'-hydroxy-2',4',6'-trimethylspiro[cyclopropane-1,5 '-inden]-7'(6'H)-one oxime], the toxicity entry with MV522 cell line [2] (target and nontarget cell line, in words) is reported as “minimal toxicity”.

As for `CC1=C(Cn2c(=O)[nH]cc(F)c2=O)C2=C(C)C3(CC3)[C@@](C)(O)C(=O)C2=C1` [compound 287], the IC50 in the series on 8392B cell line [1] (setting [5]) is 567000 ± 17000 nM; in the series on MV522 cell line [2] (setting [6]) it was 455000 ± 22000 nM.

`CC1=C(CCCNS(=O)(=O)c2ccc(C)cc2)C2=C(C)C3(CC3)[C@@](C)(O)C(=O)C2=C1` [compound 242]: the IC50 with MV522 cell line [3] was 580 ± 150 nM.

In the case of `CC1=C2C(O)C(C)(C)C3CC23C(=O)C(C)(O)C12CC2` (centres unmarked) [compound 252], the IC50 in the series on 8392B cell line [4], in the series with 8392B cell line [1] (setting [5]) and in the series with MV522 cell line [2] (setting [6]) was more than 380000 nM each time.

Regarding `CC1=C(CCCOC(=O)CNC(=O)OC(C)(C)C)C2=C(C)C3(CC3)[C@@](C)(O)C(=O)C2=C1` [compound 298], the IC50 with MV522 cell line [2] (setting [6]) is more than 7000 nM.

Regarding `CCCCCCCC/C=C/CCCCCCCC(=O)OCCCC1=C(C)C=C2C(=O)[C@](C)(O)C3(CC3)C(C)=C21` [compound 227], the IC50 with 8392B cell line [1] (setting [5]) and with MV522 cell line [2] (setting [6]) was more than 57000 nM in each case.

Regarding `CC1=C(CNC(=O)NCCCl)C2=C(C)C3(CC3)[C@@](C)(O)C(=O)C2=C1` [compound 282], the IC50 in the series with 8392B cell line [4] is more than 8500 nM; in the series with 8392B cell line [1] (setting [5]), more than 85000 nM; in the series on MV522 cell line [2] (setting [6]), 680 ± 60 nM.

Regarding `CC1=C(CO)C2=C(C)C3(CC3)[C@@](C)(O)C(=O)C2=C1` [compound 002], the “MDR Activity” value in the series with NCI 60 cell line panel was “Yes”. Also, the “Activity Value” in the series with NCI 60 cell line panel (negative = lyses tumor cells, zero = no growth, positive = slower growth) is -15. Besides, the concentration for half-maximal inhibition (IC50) in the series on MV522 cell line [2] (MV522, 2 h, read-out: Mean IC50 value (nM) ± SD, N=3 unless otherwise indicated, MV522 Target Cell Line, 2 hr exposure) was 110 ± 40 nM.

Consider `CC1=C(CSc2nnnn2-c2ccc(O)cc2)C2=C(C)C3(CC3)[C@@](C)(O)C(=O)C2=C1` [compound 154], for which the IC50 in the series on 8392B cell line [1] (setting [5]) and in the series on MV522 cell line [2] (setting [6]) was more than 70000 nM in each case.

For `CC1=C(CNO)C2=C(C)C3(CC3)[C@@](C)(O)C(=O)C2=C1` [compound 394], in the series on NCI 60 cell line panel, the “MDR Activity” value was “Yes” and the Cytotoxicity result is reported as “Yes”.

Consider `CC(=O)O[C@@H]1C2=C(C)C3(CC3)[C@@](C)(O)C(=O)C2=C[C@@]1(C)CO` [analog 371, (2'S,3'R,6'R)-6'-hydroxy-2'-(hydroxymethyl)-2',4',6'-trimethyl-7'-oxo-2',3',6',7'-tetrahydrospiro[cyclopropane-1,5'-inden]-3'-yl acetate], for which the Cytotoxicity result in the series with NCI 60 cell line panel is listed as “cytotoxic”.

In the case of `CC1=C(COCCBr)C2=C(C)C3(CC3)[C@@](C)(O)C(=O)C2=C1` [compound 020], the IC50 with 8392B cell line [1] (setting [5]) was determined as 25000 ± 3100 nM; in the series on MV522 cell line [2] (setting [6]), 530 ± 140 nM.

`COc1cc2cc(c1Cl)N(C)C(=O)C[C@H](OC(=O)[C@H](C)N(C)C(=O)CCS)[C@]1(C)O[C@H]1[C@H](C)[C@@H]1C[C@@](O)(NC(=O)O1)[C@H](OC)/C=C/C=C(\C)C2` [DM1, reference compound]: the Cytotoxicity entry in the series with NCI 60 cell line panel is “not cytotoxic and No”.

For the compound `CC1=C(CCCOC(=O)C(N)CC(C)C)C2=C(C)C3(CC3)[C@@](C)(O)C(=O)C2=C1` (some centres unmarked) [compound 176], in the series with NCI 60 cell line panel, the “MDR Activity” value is listed as “Yes” and the Cytotoxicity entry is “Yes”.

On to `CC1=C(CCCOC(=O)c2cn(CC3=C(C)C=C4C(=O)[C@](C)(O)C5(CC5)C(C)=C43)nn2)C2=C(C)C3(CC3)[C@@](C)(O)C(=O)C2=C1` [compound 257], for which, in the series with MV522 cell line [3], the IC50 was 320 ± 30 nM.

For the compound `CC1=C2C(=C[C@@](C)(COS(C)(=O)=O)[C@@H]2O)C(=O)[C@](C)(O)C12CC2` [analog 362, ((2'S,3'R,6'R)-3',6'-dihydroxy-2',4',6'-trimethyl-7'-oxo-2',3',6',7'-tetrahydrospiro[cyclopropane-1,5'-inden]-2'-yl)methyl methanesulfonate], the Cytotoxicity entry in the series with NCI 60 cell line panel is listed as “cytotoxic”.

Consider `CC1=C(CSc2nc3ccccc3s2)C2=C(C)C3(CC3)[C@@](C)(O)C(=O)C2=C1` [compound 147], for which the IC50 in the series with 8392B cell line [1] (setting [5]) and with MV522 cell line [2] (setting [6]) was more than 76000 nM each time.
